Results on 5 molecules are retold here after patent US20100105724A1, “CRYSTALLINE AND AMORPHOUS FORMS OF PALONOSETRON HYDROCHLORIDE” (HELSINN HEALTHCARE SA, priority 2006, published 2010).

Data set [1] can be described thus: Physical stability determination of polymorphs and amorphous phase. The class given is physicochemical. As to the method:
Physical Stability Determination—The physical stability of the polymorphs was determined by wetting the powders with water, suspending in ethanol, ethyl acetate, and exposing them to 93% relative humidity (RH) and 26% RH. The DSC thermogram and the x-ray diffraction pattern were obtained after a few days to determine if phase changes had occurred. The physical stability of the amorphous phase was determined by equilibrating a sample at 40° C., 75% RH for two weeks.

Data set [2] has as its system other receptors such as dopamine receptors. Conditions: literature (Wong 1995; Eglen 1995); cited from earlier work.
Data set [3] deals with T1, 5-hydroxyltryptamine 3 receptor precursor (5-HT3 receptor) (Homo sapiens, UniProt P46098).
T1 sequence (P46098 24-478): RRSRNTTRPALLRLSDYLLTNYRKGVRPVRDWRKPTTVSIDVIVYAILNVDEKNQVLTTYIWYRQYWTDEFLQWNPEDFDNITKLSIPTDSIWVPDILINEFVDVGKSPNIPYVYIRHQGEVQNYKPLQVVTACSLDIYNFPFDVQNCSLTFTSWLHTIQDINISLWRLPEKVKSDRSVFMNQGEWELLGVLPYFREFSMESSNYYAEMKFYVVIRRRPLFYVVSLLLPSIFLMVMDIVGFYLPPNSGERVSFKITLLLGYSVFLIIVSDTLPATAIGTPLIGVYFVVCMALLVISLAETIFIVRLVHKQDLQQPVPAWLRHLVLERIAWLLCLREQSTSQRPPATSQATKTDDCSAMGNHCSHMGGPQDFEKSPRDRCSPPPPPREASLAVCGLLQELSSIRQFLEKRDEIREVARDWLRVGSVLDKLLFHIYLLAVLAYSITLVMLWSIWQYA
Conditions: in vitro, literature (Wong 1995; Eglen 1995); cited from earlier work.

Data set [4] can be described thus: Hygroscopicity measurement (water absorption at constant relative humidity). The format is physicochemical. Conditions: for hygroscopicity: humidities up to 82% RH. The protocol: Hygroscopicity Measurement—Samples of 20-30 mg of the compound were weighed into small weighing bottles with ground glass tops. The bottles were dried in a 60° C. oven for 30 minutes. The samples were cooled in a dessicator containing anhydrous CaSO4 and then transferred to humidity chambers maintained at constant relative humidities with saturated salt solutions. The samples were weighed at different time intervals until equilibrium was reached. The percent moisture absorbed at a given time was calculated as follows: % Weight Change=((Wt−Wo)/Wo)×100 wherein W1=sample weight at given time after exposure to the indicated relative humidity, and Wo=initial sample weight.

For `Cl.O=C1c2cccc3c2[C@H](CCC3)CN1[C@@H]1CN2CCC1CC2` [amorphous form], the “physical stability at low humidity” value in data set [1] (26% RH, two weeks) is recorded as “remained amorphous”. Moreover, the “phase change on equilibration” value in data set [1] (40° C., 75% RH, two weeks) is reported as “converted to Form I”. Moreover, the “solid form after deliquescence at ambient humidity” value in data set [1] (ambient humidity, subsequent to deliquescence) was “re-solidified as Form II”. Moreover, in data set [1] (removed from the desiccator, ambient humidity), the “behaviour on exposure to ambient humidity” value is “deliquesced immediately”.
As to `Cl.O=C1c2cccc3c2[C@H](CCC3)CN1[C@@H]1CN2CCC1CC2` [Form II], the “phase change in suspension” value in data set [1] (suspended in ethanol for one week at ambient temperature (~25° C.)) was “converted to Form I”.
For the molecule `O=C1c2cccc3c2[C@H](CCC3)CN1[C@@H]1CN2CCC1CC2` (single isomer, unassigned) [Palonosetron], the “affinity for other receptors such as dopamine receptors” value in data set [2] is on record as “low affinity”. The “affinity as an antagonist for the 5-HT3 receptor” value in data set [3] is on record as “high affinity”.
Regarding `Cl.O=C1c2cccc3c2[C@H](CCC3)CN1[C@@H]1CN2CCC1CC2` [Form I], the Water absorbed in data set [4] (50% relative humidity, 1 day) turned out to be 0.02 weight %; in data set [4] (50% relative humidity, 4 days) it was 0.14 weight %; in data set [4] (50% relative humidity, 8 days), 0.05 weight %; in data set [4] (75% relative humidity, 1 day), 0.15 weight %; in data set [4] (75% relative humidity, 4 days), 0.22 weight %; in data set [4] (75% relative humidity, 8 days) it was 0.22 weight %. The Water absorbed in data set [4] (82% relative humidity, 1 day) came out at 0.14 weight %; in data set [4] (82% relative humidity, 4 days), 0.25 weight %; in data set [4] (82% relative humidity, 8 days), 0.54 weight %; in data set [4] (93% relative humidity, 1 day) it was 0.07 weight %; in data set [4] (93% relative humidity, 4 days), 0.63 weight %; in data set [4] (93% relative humidity, 8 days), 25.7 weight %. Further, the Water absorbed in data set [4] (humidities up to 82%, after eight days) came to 0.5%. The moisture absorbed in data set [4] (93% RH, after eight days) stood at 26%. Also, the “physical change on exposure to humidity” value in data set [4] (93% RH, after eight days) is given as “turning into a paste”; in data set [4] (93% RH, two weeks), “liquefied”. Further, the “physical state of sample” value in data set [4] (93% relative humidity, 8 days) was “Semi”. Further, the “Water absorbed (physical state printed)” value in data set [4] (93% relative humidity, 15 days) is recorded as “Liquid”. Moreover, in data set [4], the hygroscopicity result was “not hygroscopic”. The “physical stability at high humidity” value in data set [1] (93% relative humidity, two weeks, ambient temperature) is on record as “deliquesced”. Moreover, the “physical stability as a suspension” value in data set [1] (suspension in ethanol), in data set [1] (suspension in ethyl acetate) and in data set [1] (suspension in water) was “stable” each time.
Take `Cl.O=C1c2cccc3c2[C@H](CCC3)CN1[C@@H]1CN2CCC1CC2` [Palonosetron hydrochloride, (3aS)-2-[(S)-1-Azabicyclo [2.2.2]oct-3-yl]-2,3,3a,4,5,6-hexahydro-1-oxo-1Hbenz[de] isoquinoline hydrochloride]: the “physical change on exposure to humidity” value in data set [4] (93% RH, after eight days, hydrochloride) is listed as “liquefies”. Besides, the hygroscopicity result in data set [4] (hydrochloride) was “nonhygroscopic”.
